Results from patent publication US8124793B2, “Derivatives of ethylene methanedisulfonate as cancer chemotherapeutic agents” (priority 2007, dated 2012).

How the values were obtained:
Format in all cases: cell-based
MOLT-4 = test: NCI screen, growth of human tumor cells: Leukemia MOLT-4; settings: MOLT-4 (Leukemia), 10^−4 molar
In short: (§1)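 The NCI screen tests each compound on human cancer cell lines and reports percent growth. Concentrations are given in molar units; the number of data points per compound is sixty at minimum.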

CCRF-CEM = test: NCI screen, growth of human tumor cells: Leukemia CCRF-CEM; settings: CCRF-CEM (Leukemia), 10^−4 molar
In short: as §1

M14 = test: NCI screen, growth of human tumor cells: Melanoma M14; settings: M14 (Melanoma), 10^−4 molar
In short: as §1

AS283 = test: NCI screen, growth of human tumor cells: Lymphoma AS283
NCI-H23 = test: NCI screen, growth of human tumor cells: Non-Small Cell Lung NCI-H23; settings: NCI-H23 (Non-Small Cell Lung), 10^−4 molar
In short: as §1

SF-295 = test: NCI screen, growth of human tumor cells: CNS Cancer SF-295; settings: SF-295 (CNS Cancer), 10^−4 molar
In short: as §1

HOP-62 = test: NCI screen, growth of human tumor cells: Non-Small Cell Lung HOP-62; settings: HOP-62 (Non-Small Cell Lung), 10^−4 molar
In short: as §1

HCT-15 = test: NCI screen, growth of human tumor cells: Colon Cancer HCT-15; settings: HCT-15 (Colon Cancer), 10^−4 molar
In short: as §1

K562 = test: NCI screen, growth of human tumor cells: Leukemia K562; settings: K562 (Leukemia), 10^−4 molar
In short: as §1

SN12C = test: NCI screen, growth of human tumor cells: Renal Cancer SN12C; settings: SN12C (Renal Cancer), 10^−4 molar
In short: as §1

MDA-N = test: NCI screen, growth of human tumor cells: Breast Cancer MDA-N; settings: 10^−4 molar
Method: (§2) In the NCI screening process, each compound was tested and described by a minimum of 60 data points. The test data include, but are not limited to the type of cancer, the molar concentration used in the screen, and the percent growth of the cancer. In some cases, NMR and elemental analysis were used for structural assignment.

CAKI-1 = test: NCI screen, growth of human tumor cells: Renal Cancer CAKI-1; settings: CAKI-1 (Renal Cancer), 10^−4 molar
In short: as §1

LOXIMVI = test: NCI screen, growth of human tumor cells: Melanoma LOXIMVI; settings: LOXIMVI (Melanoma), 10^−4 molar
In short: as §1

HCT-116 = test: NCI screen, growth of human tumor cells: Colon Cancer HCT-116; settings: HCT-116 (Colon Cancer), 10^−4 molar
In short: as §1

MDA-MB-435 = test: NCI screen, growth of human tumor cells: Breast Cancer MDA-MB-435; settings: MDA-MB-435 (Breast Cancer), 10^−4 molar
In short: as §1

KD488 = test: NCI screen, growth of human tumor cells: Lymphoma KD488
RPMI-8226 = test: NCI screen, growth of human tumor cells: Leukemia RPMI-8226; settings: RPMI-8226 (Leukemia), 10^−4 molar
In short: as §1

NCI-H460 = test: NCI screen, growth of human tumor cells: Non-Small Cell Lung NCI-H460; settings: NCI-H460 (Non-Small Cell Lung), 10^−4 molar
In short: as §1

RL = test: NCI screen, growth of human tumor cells: Lymphoma RL
U-251 = test: NCI screen, growth of human tumor cells: CNS Cancer U-251; settings: U-251 (CNS Cancer), 10^−4 molar
In short: as §1

UACC-257 = test: NCI screen, growth of human tumor cells: Melanoma UACC-257; settings: UACC-257 (Melanoma), 10^−4 molar
In short: as §1

MCF 7 = test: NCI screen, growth of human tumor cells: Breast Cancer MCF 7; settings: MCF 7 (Breast Cancer), 10^−4 molar
In short: as §1

786-0 = test: NCI screen, growth of human tumor cells: Renal Cancer 786-0; settings: 786-0 (Renal Cancer), 10^−4 molar
In short: as §1

HOP-18 = test: NCI screen, growth of human tumor cells: Non-Small Cell Lung HOP-18
In short: as §1

SK-MEL-5 = test: NCI screen, growth of human tumor cells: Melanoma SK-MEL-5; settings: SK-MEL-5 (Melanoma), 10^−4 molar
In short: as §1

MDA-MB-231/ATCC = test: NCI screen, growth of human tumor cells: Breast Cancer MDA-MB-231/ATCC; settings: MDA-MB-231/ATCC (Breast Cancer), 10^−4 molar
In short: as §1

SU-DAL-7 = test: NCI screen, growth of human tumor cells: Lymphoma SU-DAL-7
human cancer cells = test: NCI screen summary over the cancers tested (negative growth of human cancer cells); settings: 10^−4 M conc.; cancers with negative growth / cancers tested
Method: as §2
The derivatives in the tables are grouped using the same category as in the tables 1-6.

SR = test: NCI screen, growth of human tumor cells: Leukemia SR; settings: SR (Leukemia), 10^−4 molar
In short: as §1

MCF7/ADR-RES = test: NCI screen, growth of human tumor cells: Breast Cancer MCF7/ADR-RES; settings: MCF7/ADR-RES (Breast Cancer), 10^−4 molar
In short: as §1

OVCAR-8 = test: NCI screen, growth of human tumor cells: Ovarian Cancer OVCAR-8; settings: OVCAR-8 (Ovarian Cancer), 10^−4 molar
In short: as §1

PA682 = test: NCI screen, growth of human tumor cells: Lymphoma PA682
HOP-92 = test: NCI screen, growth of human tumor cells: Non-Small Cell Lung HOP-92
In short: as §1

Compound: O=S1(=O)OCCOS(=O)(=O)C1Cc1nc2ccccc2[nH]1 [NSC 679042, ethylene 2-benzimidazolyl-1,1-ethanedisulfonate]
- percent of growth of human tumor cells (MOLT-4): −3%
- percent of growth of human tumor cells (CCRF-CEM): 15%
- percent of growth of human tumor cells (M14): 23%
- % Growth (AS283; AS283, 10^−4 molar): −25%
- % Growth (AS283; AS283, 10^−5 molar): 15%
- % Growth (AS283; AS283, 10^−6 molar): 58%
- % Growth (AS283; AS283, 10^−7 molar): 54%
- percent of growth of human tumor cells (NCI-H23): 16%
- percent of growth of human tumor cells (SF-295): 0%
- percent of growth of human tumor cells (HOP-62): 9%
- percent of growth of human tumor cells (HCT-15): 4%
- percent of growth of human tumor cells (K562): 14%
- percent of growth of human tumor cells (SN12C): 8%
- percent of growth of human tumor cells (MDA-N): 3%
- percent of growth of human tumor cells (CAKI-1): −2%
- percent of growth of human tumor cells (LOXIMVI): −50%
- percent of growth of human tumor cells (HCT-116): −31%
- percent of growth of human tumor cells (MDA-MB-435): 23%
- % Growth (KD488; KD488, 10^−4 molar): −39%
- % Growth (KD488; KD488, 10^−5 molar): 39%
- percent of growth of human tumor cells (RPMI-8226): −42%
- percent of growth of human tumor cells (NCI-H460): 14%
- % Growth (RL; 10^−4 molar): −45%
- % Growth (RL; 10^−5 molar): 41%
- percent of growth of human tumor cells (U-251): 21%
- percent of growth of human tumor cells (UACC-257): 12%
- percent of growth of human tumor cells (MCF 7): 6%
- percent of growth of human tumor cells (786-0): 22%
- % Growth (HOP-18; HOP-18, 10^−4 molar): 18%
- % Growth (HOP-18; HOP-18, 10^−5 molar): 41%
- % Growth (HOP-18; HOP-18, 10^−6 molar): 29%
- % Growth (HOP-18; HOP-18, 10^−7 molar): 51%
- % Growth (HOP-18; HOP-18, 10^−8 molar): 58%
- percent of growth of human tumor cells (SK-MEL-5): −28%
- percent of growth of human tumor cells (MDA-MB-231/ATCC): 30%
- % Growth (SU-DAL-7; SU-DAL-7, 10^−4 molar): −42%
- % Growth (SU-DAL-7; SU-DAL-7, 10^−5 molar): 29%
- % Growth (SU-DAL-7; SU-DAL-7, 10^−6 molar): 57%
- Percentage of cancers showing negative growth cancers tested (human cancer cells): 10^−4 M conc. = 12/32 = 38%
- percent of growth of human tumor cells (SR): 12%
- percent of growth of human tumor cells (MCF7/ADR-RES): 15%
- percent of growth of human tumor cells (OVCAR-8): −33%
- % Growth (PA682; PA682, 10^−4 molar): −34%
- % Growth (PA682; PA682, 10^−5 molar): 18%
- % Growth (HOP-92; HOP-92, 10^−4 molar): 18%
- % Growth (HOP-92; HOP-92, 10^−5 molar): 41%
- % Growth (HOP-92; HOP-92, 10^−6 molar): 29%
- % Growth (HOP-92; HOP-92, 10^−7 molar): 51%
- % Growth (HOP-92; HOP-92, 10^−8 molar): 56%
